From patent US11939307B2, “Phenylmethyl-piperazine derivatives and antiviral uses thereof” (INSTITUTE OF MEDICINAL BIOTECHNOLOGY, CHINESE ACADEMY OF …, priority 2019, dated 2024)

These compounds were tested on HCV (assay: Assay of anti-HCV activity in HCV-infected Huh7.5 cells (intracellular HCV RNA by one-step quantitative RT-PCR)). Conditions: Hepatitis C virus; compound at 1 μM; Huh7.5 cells infected with HCV; 96 hrs; intracellular HCV RNA vs viral control; read-out: inhibitory activities (inhibitory levels of the compounds against HCV replication).
Assay type: cell-based
Protocol: 100 μL Huh7.5 cells were seeded at a density of 1×10^5/mL in a 96-well cell culture plate and incubated in an incubator at 37° C., 5% CO2 and saturated humidity for 6 hrs. Then, while infecting Huh7.5 cells with viral solution containing HCV virus particles, the compounds of the present invention (including all specific compounds listed herein) were added at a concentration of 1 μM, respectively. After continuing incubation for 96 hrs, the total intracellular RNA was extracted separately, and the content of intracellular HCV RNA was measured by one-step quantitative RT-PCR, compared with the RNA level of the viral control, and the inhibition rate of the compounds against HCV was calculated.

**Q.** With `CC1CN(c2ccc(Br)c(C(F)(F)F)c2)CCN1Cc1cc(N(C)CCN(C)C)ccc1C(F)(F)F` (centres unmarked) [Compound 33, N^1-(3-((4-(4-bromo-3-(trifluoromethyl)phenyl)-2-methylpiperazin-1-yl)methyl)-4-(trifluoromethyl)phenyl)-N^1,N^2,N^2-trimethylethan-1,2-diamine] as the compound, how does the inhibition at 1 µM read?
**A.** Its inhibition at 1 µM is > 75%.

**Q.** `CCCC1CN(c2ccc(C(F)(F)F)cc2)CCN1Cc1cc(N2CCCN(C)CC2)ccc1C(F)(F)F` (centres unmarked) [Compound 34, 1-methyl-4-(3-((2-propyl-4-(4-(trifluoromethyl)phenyl)piperazin-1-yl)methyl)-4-(trifluoromethyl)phenyl)-1,4-diazepane] was tested. Which inhibition at 1 µM did it give?
**A.** The inhibition at 1 µM was > 75%.

**Q.** `CCN1CCCN(c2ccc(C(F)(F)F)c(CN3CCN(c4ccc(C)c(Cl)c4)CC3)c2)CC1` [Compound 35, 1-(3-((4-(3-chloro-4-methylphenyl)piperazin-1-yl)methyl)-4-(trifluoromethyl)phenyl)-4-ethyl-1,4-diazepane] was tested. Which inhibition at 1 µM did it give?
**A.** The inhibition at 1 µM was > 75%.

**Q.** With `CN1CCCN(c2ccc(C(F)(F)F)c(CN3CCN(c4ccc(F)cc4)CC3)c2)CC1` [Compound 36, 1-(3-((4-(4-fluorophenyl)piperazin-1-yl)methyl)-4-(trifluoromethyl)phenyl)-4-methyl-1,4-diazepane] as the compound, how does the inhibition at 1 µM read?
**A.** The inhibition at 1 µM was > 75%.

**Q.** For `CN1CCCN(c2ccc(C(F)(F)F)c(CN3CCN(c4ccc(F)c(Cl)c4)CC3)c2)CC1` [Compound 37, 1-(3-((4-(3-chloro-4-fluorophenyl)piperazin-1-yl)methyl)-4-(trifluoromethyl)phenyl)-4-methyl-1,4-diazepane], which inhibition at 1 µM is on record?
**A.** The inhibition at 1 µM was > 75%.

**Q.** Which inhibition at 1 µM does the source give for `CN(CCN1CCCC1)c1ccc(C(F)(F)F)c(CN2CCC(c3ccc(Cl)cc3)CC2)c1` [Compound 39, 3-((4-(4-chlorophenyl)piperidin-1-yl)methyl)-N-methyl-N-(2-(pyrrolidin-1)ethyl)-4-(trifluoromethyl)aniline] here?
**A.** The inhibition at 1 µM was > 75%.

**Q.** `Cc1cc(N2CCN(Cc3cc(N4CCCN(C)CC4)ccc3C(F)(F)F)CC2)ccc1Cl` [Compound 40, 1-(3-((4-(4-chloro-3-methylphenyl)piperazin-1-yl)methyl)-4-(trifluoromethyl)phenyl)-4-methyl-1,4-diazepane] was tested. Which inhibition at 1 µM did it give?
**A.** Its inhibition at 1 µM is > 75%.

**Q.** For `CN(C)CCN(C)c1ccc(C(F)(F)F)c(CN2CCN(c3ccc(Cl)c(F)c3)CC2)c1` [Compound 41, N^1-(3-((4-(4-chloro-3-fluorophenyl)piperazin-1-yl)methyl)-4-(trifluoromethyl)phenyl)-N^1,N^2,N^2-trimethylethan-1,2-diamine], which inhibition at 1 µM is on record?
**A.** The inhibition at 1 µM was > 75%.

**Q.** With `CN(C)CCN(C)c1ccc(C(F)(F)F)c(CN2CCC(c3ccc(Cl)c(Cl)c3)CC2)c1` [Compound 42, N^1-(3-((4-(3,4-dichlorophenyl)piperidin-1-yl)methyl)-4-(trifluoromethyl)phenyl)-N^1,N^2,N^2-trimethylethan-1,2-diamine] as the compound, how does the inhibition at 1 µM read?
**A.** Its inhibition at 1 µM is > 75%.

**Q.** `Cc1cc(C2CCN(Cc3cc(N4CCCN(C)CC4)ccc3C(F)(F)F)CC2)ccc1Cl` [Compound 43, 1-(3-((4-(4-chloro-3-methylphenyl)piperidin-1-yl)methyl)-4-(trifluoromethyl)phenyl)-4-methyl-1,4-diazepane] was tested. Which inhibition at 1 µM did it give?
**A.** The inhibition at 1 µM was > 75%.

**Q.** For `CN1CCCN(c2ccc(C(F)(F)F)c(CN3CCN(C(c4ccc(F)cc4)c4ccc(F)cc4)CC3)c2)CC1` [Compound 44, 1-(3-((4-(bis(4-fluorophenyl)methyl)piperazin-1-yl)methyl)-4-(trifluoromethyl)phenyl)-4-methyl-1,4-diazepane], which inhibition at 1 µM is on record?
**A.** Its inhibition at 1 µM is > 75%.

**Q.** How did the inhibition at 1 µM turn out when `Cc1ccc(C(c2ccc(C)cc2)N2CCN(Cc3cc(N4CCCN(C)CC4)ccc3C(F)(F)F)CC2)cc1` [Compound 45, 1-(3-((4-(bis(4-methylphenyl)methyl)piperazin-1-yl)methyl)-4-(trifluoromethyl)phenyl)-4-methyl-1,4-diazepane] was run?
**A.** The inhibition at 1 µM was > 75%.

**Q.** For `CN1CCCN(c2ccc(C(F)(F)F)c(CN3CCN(C(c4ccc(Cl)cc4)c4ccc(Cl)cc4)CC3)c2)CC1` [Compound 46, 1-(3-((4-(bis(4-chlorophenyl)methyl)piperazin-1-yl)methyl)-4-(trifluoromethyl)phenyl)-4-methyl-1,4-diazepane], which inhibition at 1 µM is on record?
**A.** Its inhibition at 1 µM is > 75%.

**Q.** Which inhibition at 1 µM does the source give for `CN1CCCN(c2ccc(C(F)(F)F)c(CN3CCN(C(c4ccc(Br)cc4)c4ccc(Br)cc4)CC3)c2)CC1` [Compound 47, 1-(3-((4-(bis(4-bromophenyl)methyl)piperazin-1-yl)methyl)-4-(trifluoromethyl)phenyl)-4-methyl-1,4-diazepane] here?
**A.** Its inhibition at 1 µM is > 75%.

**Q.** `CC(C)c1ccc(C(c2ccc(C(C)C)cc2)N2CCN(Cc3cc(N4CCCN(C)CC4)ccc3C(F)(F)F)CC2)cc1` [Compound 48, 1-(3-((4-(bis(4-isopropylphenyl)methyl)piperazin-1-yl)methyl)-4-(trifluoromethyl)phenyl)-4-methyl-1,4-diazepane] was tested. Which inhibition at 1 µM did it give?
**A.** The inhibition at 1 µM was > 75%.

**Q.** `CN(C)CCN(C)c1ccc(C(F)(F)F)c(CN2CCN(C(c3ccc(C4CC4)cc3)c3ccc(C4CC4)cc3)CC2)c1` [Compound 49, N^1-(3-((4-(bis(4-cyclopropylphenyl)methyl)piperazin-1-yl)methyl)-4-(trifluoromethyl)phenyl)-N^1,N^2,N^2-trimethylethan-1,2-diamine] was tested. Which inhibition at 1 µM did it give?
**A.** Its inhibition at 1 µM is > 75%.

**Q.** With `CN(CCN1CCC1)c1ccc(C(F)(F)F)c(CN2CCN(C(c3ccc(Cl)cc3)c3ccc(Cl)cc3)CC2)c1` [Compound 50, N-(2-(azetidin-1-yl)ethyl)-3-((4-(bis(4-chlorophenyl)methyl)piperazin-1-yl)methyl)-N-methyl-4-(trifluoromethyl)aniline] as the compound, how does the inhibition at 1 µM read?
**A.** The inhibition at 1 µM was 50 to 75%.

**Q.** How did the inhibition at 1 µM turn out when `CN1CCCN(c2ccc(C(F)(F)F)c(CN3CCN(C(c4ccccc4)c4ccc(F)cc4)CC3)c2)CC1` (centres unmarked) [Compound 51, 1-(3-((4-((4-fluorophenyl)(phenyl)methyl)piperazin-1-yl)methyl)-4-(trifluoromethyl)phenyl)-4-methyl-1,4-diazepane] was run?
**A.** Its inhibition at 1 µM is > 75%.

**Q.** With `CN(C)CCN(C)c1ccc(C(F)(F)F)c(CN2CCN(C(c3ccc(Cl)cc3)c3ccc(Cl)cc3)CC2)c1` [Compound 52, N^1-(3-((4-(bis(4-chlorophenyl)methyl)piperazin-1-yl)methyl)-4-(trifluoromethyl)phenyl)-N^1,N^2,N^2-trimethylethan-1,2-diamine] as the compound, how does the inhibition at 1 µM read?
**A.** Its inhibition at 1 µM is > 75%.

**Q.** For `CN(C)CCN(C)c1ccc(C(F)(F)F)c(CN2CCN(C(c3ccc(C(F)(F)F)cc3)c3ccc(C(F)(F)F)cc3)CC2)c1` [Compound 53, N^1-(3-((4-(bis(4-(trifluoromethyl)phenyl)methyl)piperazin-1-yl)methyl)-4-(trifluoromethyl)phenyl)-N^1,N^2,N^2-trimethylethan-1,2-diamine], which inhibition at 1 µM is on record?
**A.** Its inhibition at 1 µM is > 75%.

**Q.** How did the inhibition at 1 µM turn out when `CN(C)CCN(C)c1ccc(C(F)(F)F)c(CN2CCN(C(c3ccccc3)c3ccc(Cl)cc3)CC2)c1` (centres unmarked) [Compound 54, N^1-(3-((4-((4-chlorophenyl)(phenyl)methyl)piperazin-1-yl)methyl)-4-(trifluoromethyl)phenyl)-N^1,N^2,N^2-trimethylethan-1,2-diamine] was run?
**A.** The inhibition at 1 µM was > 75%.

**Q.** `CN1CCN(c2ccc(C(F)(F)F)c(CN3CCN(C(c4ccc(Cl)cc4)c4ccc(Cl)cc4)CC3)c2)CC1` [Compound 55, 1-(bis(4-chlorophenyl)methyl)-4-(5-(4-methylpiperazin-1-yl)-2-(trifluoromethyl)benzyl)piperazine] was tested. Which inhibition at 1 µM did it give?
**A.** The inhibition at 1 µM was > 75%.

**Q.** Which inhibition at 1 µM does the source give for `CN1CCCN(c2ccc(C(F)(F)F)c(CN3CCN(C(c4ccc(Cl)cc4)c4ccccn4)CC3)c2)CC1` (centres unmarked) [Compound 56, 1-(3-((4-((4-chlorophenyl)(pyridin-2-yl)methyl)piperazin-1-yl)methyl)-4-(trifluoromethyl)phenyl)-4-methyl-1,4-diazepane] here?
**A.** The inhibition at 1 µM was 50 to 75%.

**Q.** With `CN1CCCN(c2ccc(C(F)(F)F)c(CN3CCN(C(c4ccccc4)c4ccccn4)CC3)c2)CC1` (centres unmarked) [Compound 57, 1-methyl-4-(3-((4-(phenyl(pyridin-2-yl)methyl)piperazin-1-yl)methyl)-4-(trifluoromethyl)phenyl)-1,4-diazepane] as the compound, how does the inhibition at 1 µM read?
**A.** Its inhibition at 1 µM is 50 to 75%.

**Q.** `COc1ccc(C(c2ccc(OC)cc2)N2CCN(Cc3cc(N(C)CCN(C)C)ccc3C(F)(F)F)CC2)cc1` [Compound 58, N^1-(3-((4-(bis(4-methoxyphenyl)methyl)piperazin-1-yl)methyl)-4-(trifluoromethyl)phenyl)-N^1,N^2,N^2-trimethylethan-1,2-diamine] was tested. Which inhibition at 1 µM did it give?
**A.** Its inhibition at 1 µM is > 75%.

**Q.** With `CCCN(CCN(C)C)c1ccc(C(F)(F)F)c(CN2CCN(C(c3ccc(Cl)cc3)c3ccc(Cl)cc3)CC2)c1` [Compound 59, N^1-(3-((4-(bis(4-chlorophenyl)methyl)piperazin-1-yl)methyl)-4-(trifluoromethyl)phenyl)-N^2,N^2-dimethyl-N^1-propylethan-1,2-diamine] as the compound, how does the inhibition at 1 µM read?
**A.** Its inhibition at 1 µM is > 75%.

**Q.** How did the inhibition at 1 µM turn out when `CC1CN(C(c2ccc(F)cc2)c2ccc(F)cc2)CCN1Cc1cc(N2CCCN(C)CC2)ccc1C(F)(F)F` (centres unmarked) [Compound 60, 1-(3-((4-(bis(4-fluorophenyl)methyl)-2-methylpiperazin-1-yl)methyl)-4-(trifluoromethyl)phenyl)-4-methyl-1,4-diazepane] was run?
**A.** The inhibition at 1 µM was > 75%.

**Q.** `CC1CN(C(c2ccc(Cl)cc2)c2ccc(Cl)cc2)CCN1Cc1cc(N2CCCN(C)CC2)ccc1C(F)(F)F` (centres unmarked) [Compound 61, 1-(3-((4-(bis(4-chlorophenyl)methyl)-2-methylpiperazin-1-yl)methyl)-4-(trifluoromethyl)phenyl)-4-methyl-1,4-diazepane] was tested. Which inhibition at 1 µM did it give?
**A.** Its inhibition at 1 µM is > 75%.

**Q.** How did the inhibition at 1 µM turn out when `CN(CC1CCCN1C)c1ccc(C(F)(F)F)c(CN2CCN(C(c3ccc(Cl)cc3)c3ccc(Cl)cc3)CC2)c1` (centres unmarked) [Compound 62, 3-((4-(bis(4-chlorophenyl)methyl)piperazin-1-yl)methyl)-N-methyl-N-((1-methylpyrrolidin-2-yl)methyl)-4-(trifluoromethyl)aniline] was run?
**A.** Its inhibition at 1 µM is > 75%.
